According to patent US20250230193A1, “CYCLIC COMPOUND HAVING SELECTIVE KRAS INHIBITORY EFFECT ON HRAS AND NRAS” (CHUGAI SEIYAKU KABUSHIKI KAISHA, priority 2022, published 2025):
Where a SMILES comes first, the peptide text is derived from it. Bridges are numbered along the chain shown (N, C = ends). [ ]: non-standard residue; d: D form. hPhe(3-Cl-4-CF3) = N[C@@H](CCc1ccc(C(F)(F)F)c(Cl)c1)C(=O)O; NPrPhe(4-CF3) = CCCN[C@@H](Cc1ccc(C(F)(F)F)cc1)C(=O)O; NMeGly(cPent) = CN[C@H](C(=O)O)C1CCCC1; NMeD = CN[C@@H](CC(=O)O)C(=O)O; NMeL = CN[C@@H](CC(C)C)C(=O)O; Aze = O=C(O)[C@@H]1CCN1; Ac4c = NC1(C(=O)O)CCC1; Sar = CNCC(=O)O

Tests used:
[1] = molecular target: GDP-bound NRAS wild-type protein (Homo sapiens, UniProt P01111); assay: Binding to NRAS by surface plasmon resonance (SPR), Single Cycle Kinetics; settings: SPR
[2] = molecular target: GDP-bound HRAS wild-type protein (Homo sapiens, UniProt P01112); assay: Binding to HRAS by surface plasmon resonance (SPR), Single Cycle Kinetics; settings: SPR
[3] = GDP-bound NRAS wild-type vs GDP-bound KRAS wild-type
[4] = GDP-bound HRAS wild-type vs GDP-bound KRAS wild-type

Chain of GDP-bound NRAS wild-type protein (P01111 whole entry): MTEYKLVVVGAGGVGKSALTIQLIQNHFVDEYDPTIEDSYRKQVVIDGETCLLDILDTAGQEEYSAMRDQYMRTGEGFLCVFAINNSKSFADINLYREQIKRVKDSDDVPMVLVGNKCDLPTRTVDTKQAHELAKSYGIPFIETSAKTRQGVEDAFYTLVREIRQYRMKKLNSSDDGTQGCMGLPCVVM
Chain of GDP-bound HRAS wild-type protein (P01112 whole entry): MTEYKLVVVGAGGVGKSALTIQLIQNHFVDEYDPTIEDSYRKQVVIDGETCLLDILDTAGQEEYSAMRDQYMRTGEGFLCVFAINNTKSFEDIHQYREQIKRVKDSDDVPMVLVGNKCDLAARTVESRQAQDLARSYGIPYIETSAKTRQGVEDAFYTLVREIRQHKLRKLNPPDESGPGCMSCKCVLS

## CCC(CC)[C@H]1C(=O)N(C)[C@H](C(=O)N(C)C)CC(=O)N(C)[C@@H](COC)C(=O)N[C@@H]([C@@H](C)CC)C(=O)N(C)CC(=O)N(C)[C@H]2C/C=C\CCN(C2=O)[C@@H](Cc2ccc(C)cc2)C(=O)N(C)CC(=O)N[C@@H](CCc2ccc(Cl)c(Cl)c2)C(=O)N2CCCCC[C@H]2C(=O)NC2(CC(C)(C)C2)C(=O)N1C [PP2974]
[1]; GDP-bound wild-type proteins
  NRAS/KRAS (ratio of KD value with respect to GDP-bound NRAS wild-type protein to KD value with respect to KRAS): A (a compound having 10 or more and less than 20 is denoted as A)
[2]; GDP-bound wild-type proteins
  HRAS/KRAS (ratio of KD value with respect to GDP-bound HRAS wild-type protein to KD value with respect to KRAS): A (a compound having 10 or more and less than 20 is denoted as A)

## CCCOC[C@H]1C(=O)N[C@@H]([C@@H](C)CC)C(=O)N(C)CC(=O)N(C)[C@H]2C/C=C\CCN(C2=O)[C@@H](Cc2ccc(C)cc2)C(=O)N(C)CC(=O)N[C@@H](CCc2cc(F)c(C(F)(F)F)c(F)c2)C(=O)N2C[C@H](CCC)C[C@H]2C(=O)NC2(CCC2)C(=O)N(C)[C@@H](C2CCCC2)C(=O)N(C)[C@H](C(=O)N(C)C)CC(=O)N1C [PP2232]
[1]; [3]
  NRAS/KRAS (ratio of KD value with respect to NRAS to KD value with respect to KRAS): A (a compound having 10 or more and less than 20 is denoted as A)
[2]; [4]
  HRAS/KRAS (ratio of KD value with respect to HRAS to KD value with respect to KRAS): A (a compound having 10 or more and less than 20 is denoted as A)

## CCCN1C(=O)[C@@H]2CCN2C(=O)CN(C)C(=O)[C@H]([C@@H](C)CC)NC(=O)[C@H](CC(C)C)N(C)C(=O)C[C@@H](C(=O)N(C)C)N(C)C(=O)[C@H](C2CCCC2)N(C)C(=O)C2(CCC2)NC(=O)[C@@H]2CCCN2C(=O)[C@H](CCc2ccc(C(F)(F)F)c(Cl)c2)NC(=O)CN(C)C(=O)[C@@H]1Cc1ccc(C(F)(F)F)cc1 [PP0441] ([NMeL]I[Sar][Aze][NPrPhe(4-CF3)][Sar][hPhe(3-Cl-4-CF3)]P[Ac4c][NMeGly(cPent)][NMeD]-NMe2; lactam N-11)
[1]
  NRAS/KRAS (ratio of KD value with respect to GDP-bound NRAS wild-type protein to KD value with respect to KRAS): C (A compound having a KD ratio of 0.1 or more and less than 3 is denoted as C)
[2]
  HRAS/KRAS (ratio of KD value with respect to GDP-bound HRAS wild-type protein to KD value with respect to KRAS): C (A compound having a KD ratio of 0.1 or more and less than 3 is denoted as C)

## CCC[C@H]1C(=O)N[C@@H]([C@@H](C)CC)C(=O)N2CCC[C@H]2C(=O)N(C)[C@H]2C/C=C\CCN(C2=O)[C@@H](Cc2ccc(C(F)(F)F)cc2)C(=O)N(C)CC(=O)N[C@@H](CCc2ccc(C(F)(F)F)c(OC)c2)C(=O)N2C[C@@H](C)C[C@H]2C(=O)N(C)C2(CCC2)C(=O)N(C)[C@@H](C2CCCC2)C(=O)N(C)[C@H](C(=O)N(C)C)CC(=O)N1C [PP2362]
[1]; [3]
  NRAS/KRAS (ratio of KD value with respect to NRAS to KD value with respect to KRAS): A (a compound having 10 or more and less than 20 is denoted as A)
[2]; [4]
  HRAS/KRAS (ratio of KD value with respect to HRAS to KD value with respect to KRAS): A (a compound having 10 or more and less than 20 is denoted as A)

## CCO[C@@H]1C[C@H]2C(=O)NC3(CC(C)(C)C3)C(=O)N(C)[C@@H](C(CC)CC)C(=O)N(C)[C@H](C(=O)N3CCCC3)CC(=O)N(C)[C@@H](CC)C(=O)N[C@@H]([C@@H](C)CC)C(=O)N(C)CC(=O)N(C)[C@H]3C/C=C\CCN(C3=O)[C@@H](Cc3ccc(C)cc3)C(=O)N(C)CC(=O)N[C@@H](CCc3cc(F)c(C(F)(F)F)c(F)c3)C(=O)N2C1 [PP2149]
[1]; [3]
  NRAS/KRAS (ratio of KD value with respect to NRAS to KD value with respect to KRAS): A (a compound having 10 or more and less than 20 is denoted as A)
[2]; [4]
  HRAS/KRAS (ratio of KD value with respect to HRAS to KD value with respect to KRAS): A (a compound having 10 or more and less than 20 is denoted as A)

## CC[C@H](C)[C@@H]1NC(=O)[C@H](CC(C)C)N(C)C(=O)C[C@@H](C(=O)N2CCOCC2)N(C)C(=O)[C@H](C2CCCC2)NC(=O)C2(CCCC2)NC(=O)[C@@H]2CCCN2C(=O)[C@H](CCc2cc(F)c(C(F)(F)F)c(F)c2)NC(=O)CN(C)C(=O)[C@H](Cc2ccc(C(F)(F)F)cc2)N2CCCC[C@@H](C2=O)N(C)C(=O)CN(C)C1=O [PP0540]
[1]
  NRAS/KRAS (ratio of KD value with respect to GDP-bound NRAS wild-type protein to KD value with respect to KRAS): B (a compound having 3 or more and less than 10 is denoted as B)
[2]
  HRAS/KRAS (ratio of KD value with respect to GDP-bound HRAS wild-type protein to KD value with respect to KRAS): B (a compound having 3 or more and less than 10 is denoted as B)

## CC[C@H](C)[C@@H]1NC(=O)[C@H](CC(F)F)N(C)C(=O)C[C@@H](C(=O)N(C)C)N(C)C(=O)[C@H](C2CCCC2)N(C)C(=O)C2(CC(C)(C)C2)NC(=O)[C@@H]2C[C@H](C)CN2C(=O)[C@H](CCc2cc(F)c(C(F)(F)F)c(F)c2)NC(=O)CN(C)C(=O)[C@H](Cc2ccc(C(F)(F)F)cc2)N2CC/C=C\C[C@@H](C2=O)N(C)C(=O)CN(C)C1=O [PP1658]
[1]; KD ratio, GDP-bound NRAS wild-type vs GDP-bound KRAS wild-type
  NRAS/KRAS (ratio of KD value for NRAS to KD value for KRAS): A (a compound having 10 or more and less than 20 is denoted as A)
[2]; KD ratio, GDP-bound HRAS wild-type vs GDP-bound KRAS wild-type
  HRAS/KRAS (ratio of KD value for HRAS to KD value for KRAS): A (a compound having 10 or more and less than 20 is denoted as A)
